This note sets out measurements from patent publication US20230167058A1, “GPX4 COMPOUNDS AND COMPOSITIONS AND METHODS OF TREATMENT USING SAME” (THE TRUSTEES OF COLUMBIA UNIVERSITY IN THE CITY OF NEW YORK, priority 2020, published 2023).

Test [1] deals with GPX4 protein level in HT-1080 cells. The experiment in a line: Western blot GPX4 degradation study in HT-1080. The format is cell-based, human. The following applies: 1 μM RSL3, 1 μM ML162, 10 μM FIN56, 10 h, with 100 μM α-tocopherol. As for the experimental part: For the GPX4 degradation study, HT-1080 cells were seeded at 800,000 per well in a 60-mm plate and allowed to adhere overnight. Cells were then treated with 100 μM α-tocopherol and either 1 μM RSL3, 1 μM ML162, 10 μM IKE, 10 μM FIN56, or vehicle for 10 h. Cells were harvested with trypsin (Invitrogen, 25200-114), pelleted, and lysed with RIPA buffer.
For both experiments, cell lysates were blotted and imaged as previously described (Yang et al. 2014). Antibodies used were GPX4 (Abcam, ab125066, 1:250 dilution), actin (Cell Signaling, D18C11, 1:3,000 dilution), and GAPDH (Santa Cruz, sc-47724, 1:10,000 dilution). Results were quantified using a LI-COR Odyssey CLx IR scanner and GraphPad Prism 7.
A general note: Immunoblotting shows a protein as a band on a membrane.

In test [2] the target is T1, GPX4 (Homo sapiens, UniProt P36969).
T1 sequence (P36969 1-170 isoform P36969-2): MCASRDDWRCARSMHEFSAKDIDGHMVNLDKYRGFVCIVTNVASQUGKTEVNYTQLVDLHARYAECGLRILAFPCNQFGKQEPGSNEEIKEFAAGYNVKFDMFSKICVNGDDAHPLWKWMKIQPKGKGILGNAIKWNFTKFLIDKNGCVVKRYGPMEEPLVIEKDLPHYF
The test can be described thus: GPX4-specific enzymatic activity assay (LC-MS substrate/product, NADPH-coupled). The format is biochemical. An excerpt:
(§1) These x-ray structures enabled further optimization of current inhibitors and the design of novel inhibitors targeting various binding sites on GPX4. Therefore, we applied a strategy of computer-facilitated design, based on MD simulation (Desmond) and Glide docking (Schrödinger Suite), and experimental high-throughput screening of a lead-optimized compound library of 10,000 compounds (FIGS. 6A-6E). All candidates were first evaluated by thermal denaturation assay and microscale thermophoresis (MST) to validate binding to GPX4 (Table 1). Surface plasmon resonance (SPR) and isothermal titration calorimetry (ITC) were then applied to precisely measure their binding kinetics and affinities, while ^1H-^15N heteronuclear single-quantum coherence (HSQC) NMR spectroscopy informed us of binding sites. We optimized two GPX4-specific activity assays to examine enzymatic inhibitory effects of hit compounds—LC-MS-based substrate/product monitoring and an NADPH-coupled assay. […] Some L880 analogues were also synthesized and tested (Table 2).

The target of test [3] is T2, GPX4 (Homo sapiens, UniProt P36969, U73C).
T2 sequence (P36969 33-197 U73C): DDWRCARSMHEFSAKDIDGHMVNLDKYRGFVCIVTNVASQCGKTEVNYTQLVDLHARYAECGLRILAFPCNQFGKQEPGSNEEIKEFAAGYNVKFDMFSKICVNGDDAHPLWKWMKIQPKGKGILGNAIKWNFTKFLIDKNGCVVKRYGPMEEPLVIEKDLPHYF
The test can be described thus: Microscale thermophoresis (MST) binding to GPX4.
From the text: as §1, with “Therefore,” for “These x-ray structures enabled further optimization of current inhibitors and the design of novel inhibitors targeting various binding sites on GPX4. Therefore,”
(Microscale thermophoresis detects binding through changes in fluorescence in a small temperature gradient.)

For test [4], the target named is T3, GPX4^U46C (Homo sapiens, UniProt P36969, U73C).
T3 construct: His6 (N, cleaved yes); made in house; host or cells: E. coli BL21-Gold (DE3), M9 minimal medium with 15NH4Cl
T3 sequence (P36969 33-197 U73C): T2 sequence (P36969 33-197 U73C)
The experiment in a line: Thermal shift assay (screen of LOC library). The format is binding. The following applies: Table 1. How it is done:
To fully utilize the versatility shown by the […] site to accommodate structurally diverse compounds, we applied thermal shift assay to screen 9,719 compounds in the Lead-Optimized-Compound (LOC) library for in vitro binders of GPX4^U46C, which would shift the melting temperature of GPX4^U46C (|ΔTm|>2° C., FIG. 12D) (Kaplan et al. 2015).
Since the binding of small molecules may alter the thermostability of protein, we applied thermal shift assay to screen the LOC library, which determined binding of ligand from the change of the unfolding transition temperature (ΔTm) obtained in the presence of ligands relative to that obtained in the absence of ligands (Kaplan et al. 2015; Lo et al. 2004). For higher throughput purpose, we adapted the assay on 384-well PCR plate. With the assistance of Biomek Automated Liquid Handler (Beckman), 2 μl 10 mM stock solution (in 100% DMSO) of the each compound was transferred from 384-well library plates to 38 μl FPLC buffer (100 mM Tris pH 8.0, 300 mM NaCl, 3 mM TCEP) and mixed in each well of a 384-well mother plate. The compound solution was then dispensed, 12 μl per well, into three 384-well PCR plates. GPX4^U46C protein and Sypro orange were manually added to the plate, with the final concentrations of 5 μM and 5×, respectively, to make a volume of 20 μl per well right before thermal shift analysis of the specific plate. The thermal shift assay was performed on the ViiA 7 Real-Time PCR system (Thermo Fisher) with the thermal protocol: 25° for 15 s, Increase temp to 99° at a rate of 0.05°/sec, 99° for 15 sec. The fluorescence was recorded and analyzed by Protein Thermal Shift™ software. The mean |ΔTm| value for the biological triplicates were calculated and used for hit identification.

The target in test [5] is T2, GPX4. The experiment in a line: Surface plasmon resonance (SPR). The format is binding. The conditions noted are these: Table 1.
From the text: as §1
Background: In SPR one partner is held on a chip, and binding of the other changes the refractive index at the surface.

Test [6] addresses T3, GPX4^U46C. The experiment in a line: 1H,15N-HSQC-NMR of 15N-labeled GPX4^U46C. The format is binding. The following applies: Table 1. How it is done: Uniformly ^15N-labeled GPX4^U46C protein with N-terminal His6 tag was prepared. The GPX4^U46C construct was expressed in E. coli BL21-Gold (DE3) cells (Stratagene) growing at 37° C. in M9 minimal medium supplemented with […] ampicillin, 2 mM MgSO4, […] CaCl2, 1× trace metals, 1×RPMI 1640 vitamin stock (Sigma-Aldrich, #R7256), […] biotin, […] thiamine hydrochloride, 4 g/L glucose, and 3 g/L ^15NH4Cl as the sole nitrogen source. The following induction, lysis, and protein purification was the same as for the non-isotope-labeled His-tagged GPX4^U46C described above, except the N-terminal His6 tag was removed by adding 5 U/mg thrombin before FPLC purification. The thrombin reaction was after a buffer exchange to remove imidazole, which otherwise would inhibit thrombin, and was allowed to proceed overnight at 4° C.
Then the protein solution was concentrated to 50 μM before testing. For HSQC of GPX4 with other inhibitors, 50 μM ^15N-labeled GPX4 was preincubated with 800 μM inhibitor to be tested for […] at room temperature in buffer (100 mM MES, 5 mM TCEP, pH 6.5). D20 (10%) was then added for the field frequency lock. The ^1H-^15N HSQC spectra were collected on Bruker Avance III 500 Ascend (500 MHz) spectrometers (Columbia University) at 298K. The ^1H carrier frequency was positioned at the water resonance. The ^15N carrier frequency was positioned at 115 ppm. The spectral width in the ^1H dimension was 7,500 Hz and the width in the ^15N dimension was 1,824.6 Hz. Suppression of water signal was accomplished using the WATERGATE sequence. Heteronuclear decoupling was accomplished using GARP decoupling scheme.

In test [7] the target is T3, GPX4^U46C. The test can be described thus: Intact protein MALDI MS analysis, GPX4^U46C. The format is binding. The following applies: protein preincubated with excess inhibitor. How it is done: GPX4^U46C or GPX4^AllCys(−)-A46C protein was pre-incubated with DMSO control or the inhibitor to be tested prior to MALDI MS analysis: 50 μM GPX4 protein was incubated with 500 μM inhibitors in FPLC buffer (100 mM Tris pH 8.0, 300 mM NaCl, and 3 mM TCEP) with 5% DMSO at RT for 1 hour before transferring to 4° C. overnight.
1 μl of the ligand-free protein (pre-incubated with DMSO) or protein-inhibitor complex (pre-incubated with the inhibitor to be tested) was mixed with 9 μl of 10 mg/ml sinapinic acid in the matrix solution (70:30 water/acetonitrile, with 0.1% TFA). 1.0 μl of the final mix was deposited onto the target carrier and allowed to air dry. MALDI spectrum was recorded using Bruker ultrafleXtreme MALDI-TOF instrument. The range of m/z detection and suppression was adjusted to accommodate the molecular weight of target protein. 2000 Hz and 50% intensity was applied for the laser setting. For each sample, five cumulative spectra were collected and the sum was recorded for analysis. All MALDI spectra of protein-inhibitor complex were compared with ligand-free protein to determine the mass shift. Mass shifts were aligned with the mass of potential staying group of each inhibitor to conclude covalent binding.

Test [8] deals with T3, GPX4^U46C. The experiment in a line: Co-crystal structure of GPX4^U46C with inhibitor. The format is binding. As for the experimental part:
GPX4^U46C was pre-incubated with the covalent inhibitors before crystallization using the following specifically optimized condition.
RSL3 and ML162 condition: 50 μM GPX4^U46C incubated with 150 μM RSL3 or ML162 in the reaction buffer (20 mM Tris pH 9.0, 100 mM NaCl, 3 mM TCEP, 1.5% DMSO) at 15° C. for 1 hour before transferring to 4° C. overnight. CDS9 condition: 25 μM GPX4^U46C incubated with 2 mM CDS9 in the reaction buffer (100 mM Tris pH 9.0, 300 mM NaCl, 1 mM TCEP, 2% DMSO) at 37° C. for 2 hours before transferring to 4° C. overnight. TMT10 condition: 25 μM GPX4^U46C incubated with 2 mM TMT10 in the reaction buffer (100 mM Tris pH 9.0, 300 mM NaCl, 2% glycerol, 2% DMSO) at 37° C. for 4 hours before transferring to 4° C. overnight. MAC-5576 condition: 50 μM GPX4^U46C protein was incubated with 500 μM MAC-5576 in the reaction buffer (100 mM Tris pH 9.0, 300 mM NaCl, and 3 mM TCEP, 5% DMSO) at RT for 1 hour before transferring to 4° C. overnight.
After confirmation of covalent binding using intact protein MALDI MS analysis, the protein-inhibitor complex were exchanged into crystallization buffer (10 mM Tris pH 8.0, 5 mM TCEP) and concentrated to 5 mg/ml.

Where two headings read alike, the source gives them in different places.

Take `O=S(=O)(NC1CCCCC1)c1ccc2c(c1)C(=NO)c1cc(S(=O)(=O)NC3CCCCC3)ccc1-2` [FIN56]: in test [1], the “degradation of endogenous GPX4” value is reported as “significantly promoted degradation of GPX4”.

The Kd is the free concentration of one partner at which half of the binding sites on the other are occupied at equilibrium, for simple one-to-one binding. Take `CC(C)(C(=O)[O][Sn]([CH3])([CH3])[CH3])N1C(=O)c2ccccc2C1=O` [LOC880]: the GPX4 enzymatic assay entry in test [2] is reported as “positive”. The compound further yielded an equilibrium dissociation constant (Kd) in test [3] of 6.7 µM. In addition, the MST result in test [3] (Table 1) is “positive”. The Thermal shift result in test [4] was “positive”. Also, the SPR result in test [5] is “positive”. In test [6], the Binding site result is given as “Allosteric Site 2” and the HSQC assay result is “positive”.

For `CN(C)c1ccc(/C=C2\SC(N3CCN(CCO)CC3)=NC2=O)cc1` [LOC957], in test [2], the GPX4 enzymatic assay entry is “positive”. Moreover, the MST result in test [3] (Table 1) is on record as “positive”. Moreover, in test [3] (Table 1, read-out: MST Kd), the Kd was found to be 6.8 µM. Further, the Thermal shift result in test [4] is “positive”. Further, in test [5], the SPR result is “positive”. Further, in test [6], the Binding site entry was “Allosteric Site 2” and the HSQC assay entry is given as “positive”.

For `CN(C)C(=O)c1ccc2c(c1)NC(=O)C1CCCN21` (stereo not drawn) [LOC4873], in test [2], the GPX4 enzymatic assay result is “positive”. The MST result in test [3] (Table 1) is “positive”. In test [3] (Table 1, read-out: MST Kd), the dissociation constant Kd is 40 µM. The Thermal shift result in test [4] is listed as “positive”. In addition, the SPR result in test [5] is “positive”. For the same compound, in test [6], the Binding site result is “Allosteric Site 2” and the HSQC assay result is reported as “positive”.

Regarding `O=C(Oc1cncc(Cl)c1)c1cccs1` [MAC-5576], the “covalent binding to GPX4^U46C by intact protein MALDI MS” value in test [7] is given as “able to covalently modify GPX4”. Also, the “binding site in co-crystal structure” value in test [8] is “bound to the cys66 allosteric site”.
